Source: patent US20210079015A1, “NOVEL DIHYDROISOXAZOLE COMPOUNDS AND THEIR USE FOR THE TREATMENT OF HEPATITIS B” (Novartis AG, priority 2017, published 2021)

System: HBV
Assay: Anti-HBV assay (inhibition of HBV replication in HepG2.cl42 cells, HBV DNA by qPCR)
Format: cell-based, HBV ayw strain
Settings: Hepatitis B virus, 96 h, treated four days, HBV DNA quantified by real time PCR, read-out: HBsAg EC50

| Compound | EC50 |
| --- | --- |
| O=C(Nc1cc(F)c(F)c(F)c1)N1CCc2noc(N3CCCC3)c2C1 [Compound 5.3, 3-(pyrrolidin-1-yl)-N-(3,4,5-trifluorophenyl)-6,7-dihydroisoxazolo[4,3-c]pyridine-5(4H)-carboxamide] | ≥ 1000 nM |
| C[C@H]1Cc2noc(-c3ccc(F)cn3)c2CN1C(=O)Nc1cc(F)c(F)c(F)c1 [Compound 27, (S)-3-(5-fluoropyridin-2-yl)-6-methyl-N-(3,4,5-trifluorophenyl)-6,7-dihydroisoxazolo[4,3-c]pyridine-5(4H)-carboxamide] | 100 to 1000 nM |
| COC[C@H]1CN(c2onc3c2CN(C(=O)Nc2cc(F)c(F)c(F)c2)[C@@H](C)C3)C(=O)O1 [Compound 62, (S)-3-((R)-5-(methoxymethyl)-2-oxooxazolidin-3-yl)-6-methyl-N-(3,4,5-trifluorophenyl)-6,7-dihydroisoxazolo[4,3-c]pyridine-5(4H)-carboxamide] | 100 to 1000 nM |
| C[C@H]1Cc2noc(-c3ccccc3F)c2CN1C(=O)Nc1cc(F)c(F)c(F)c1 [Compound 10] | 100 to 1000 nM |
| O=C(Nc1cc(F)c(F)c(F)c1)N1CCc2noc(-c3ccc(F)cc3F)c2C1 [Compound 1.1, 3-(2,4-difluorophenyl)-N-(3,4,5-trifluorophenyl)-6,7-dihydroisoxazolo[4,3-c]pyridine-5(4H)-carboxamide] | 100 to 1000 nM |
| Cc1cc(-c2onc3c2[C@H](C)N(C(=O)Nc2cc(F)c(F)c(F)c2)CC3)no1 [Compound 26, (S)-4-methyl-3-(5-methylisoxazol-3-yl)-N-(3,4,5-trifluorophenyl)-6,7-dihydroisoxazolo[4,3-c]pyridine-5(4H)-carboxamide] | ≥ 1000 nM |
| C[C@H]1c2c(noc2-c2cn(C)nn2)CCN1C(=O)Nc1cc(F)c(F)c(F)c1 [Compound 38] | ≥ 1000 nM |
| C[C@H]1Cc2noc(N3CCOCC3=O)c2CN1C(=O)Nc1cc(F)c(F)c(F)c1 [Compound 49, (S)-6-methyl-3-(3-oxomorpholino)-N-(3,4,5-trifluorophenyl)-6,7-dihydroisoxazolo[4,3-c]pyridine-5(4H)-carboxamide] | < 100 nM |
| C[C@H]1Cc2noc(N3CCCCC3=O)c2CN1C(=O)Nc1ccc(C#N)c(F)c1 [Compound 47, (S)—N-(4-cyano-3-fluorophenyl)-6-methyl-3-(2-oxopiperidin-1-yl)-6,7-dihydroisoxazolo[4,3-c]pyridine-5(4H)-carboxamide] | 100 to 1000 nM |
| C[C@H]1Cc2noc(N3CCCOC3=O)c2CN1C(=O)Nc1ccnc(C(F)F)c1 [Compound 52, (S)—N-(2-(difluoromethyl)pyridin-4-yl)-6-methyl-3-(2-oxo-1,3-oxazinan-3-yl)-6,7-dihydroisoxazolo[4,3-c]pyridine-5(4H)-carboxamide] | 100 to 1000 nM |
| C[C@@H]1Cc2noc(-c3ccc(F)cc3F)c2CN1C(=O)Nc1cc(F)c(F)c(F)c1 [Compound 3.1-II, (R)-3-(2,4-difluorophenyl)-6-methyl-N-(3,4,5-trifluorophenyl)-6,7-dihydroisoxazolo[4,3-c]pyridine-5(4H)-carboxamide] | 100 to 1000 nM |
| C[C@H]1Cc2noc(N3CCCOC3=O)c2CN1C(=O)Nc1ccc(F)c(C(F)F)c1 [Compound 50, (S)—N-(3-(difluoromethyl)-4-fluorophenyl)-6-methyl-3-(2-oxo-1,3-oxazinan-3-yl)-6,7-dihydroisoxazolo[4,3-c]pyridine-5(4H)-carboxamide] | < 100 nM |
| C[C@H]1Cc2noc(-c3ccccc3)c2CN1C(=O)Nc1cc(F)c(F)c(F)c1 [Compound 15] | 100 to 1000 nM |
| Cc1cc(-c2onc3c2CN(C(=O)Nc2cc(F)c(F)c(F)c2)[C@@H](C)C3)no1 [Compound 25, (S)-6-methyl-3-(5-methylisoxazol-3-yl)-N-(3,4,5-trifluorophenyl)-6,7-dihydroisoxazolo[4,3-c]pyridine-5(4H)-carboxamide] | 100 to 1000 nM |
| C[C@H]1Cc2noc(-c3ccc(F)cc3)c2CN1C(=O)Nc1cc(F)c(F)c(F)c1 [Compound 13] | 100 to 1000 nM |
| O=C(Nc1cc(F)c(F)c(F)c1)N1CCc2noc(N3CCCC3=O)c2C1 [Compound 5.1, 3-(2-oxopyrrolidin-1-yl)-N-(3,4,5-trifluorophenyl)-6,7-dihydroisoxazolo[4,3-c]pyridine-5(4H)-carboxamide] | 100 to 1000 nM |
| C[C@H]1Cc2noc(-c3cn(C)nn3)c2CN1C(=O)Nc1cc(F)c(F)c(F)c1 [Compound 37] | 100 to 1000 nM |
| C[C@H]1Cc2noc(-c3ccccc3Cl)c2CN1C(=O)Nc1cc(F)c(F)c(F)c1 [Compound 12] | 100 to 1000 nM |
| C[C@H]1Cc2noc(-c3ccc(OC(F)F)cc3)c2CN1C(=O)Nc1cc(F)c(F)c(F)c1 [Compound 24] | 100 to 1000 nM |
| C[C@H]1Cc2noc(-c3cccc(F)c3)c2CN1C(=O)Nc1cc(F)c(F)c(F)c1 [Compound 21] | 100 to 1000 nM |
| C[C@H]1c2c(noc2C2CCCC2)CCN1C(=O)Nc1cc(F)c(F)c(F)c1 [Compound 44] | ≥ 1000 nM |
| C[C@H]1Cc2noc(N3CCCOC3=O)c2CN1C(=O)Nc1cc(F)c(F)c(F)c1 [Compound 48, (S)-6-methyl-3-(2-oxo-1,3-oxazinan-3-yl)-N-(3,4,5-trifluorophenyl)-6,7-dihydroisoxazolo[4,3-c]pyridine-5(4H)-carboxamide] | < 100 nM |
| C[C@H]1Cc2noc(C3CCCC3)c2CN1C(=O)Nc1cc(F)c(F)c(F)c1 [Compound 43] | 100 to 1000 nM |

| Compound | EC50 |
| --- | --- |
| O=C(Nc1cc(F)c(F)c(F)c1)N1CCc2onc(-c3ccc(F)cc3F)c2C1 [Compound 7.1, 3-(2,4-difluorophenyl)-N-(3,4,5-trifluorophenyl)-6,7-dihydroisoxazolo[4,5-c]pyridine-5(4H)-carboxamide] | 100 to 1000 nM |
| O=C(Nc1cc(F)c(F)c(F)c1)N1CCc2noc(N3CCOC3=O)c2C1 [Compound 5.2, 3-(2-oxooxazolidin-3-yl)-N-(3,4,5-trifluorophenyl)-6,7-dihydroisoxazolo[4,3-c]pyridine-5(4H)-carboxamide] | 100 to 1000 nM |
| C[C@H]1c2c(noc2-c2cnn(C)c2)CCN1C(=O)Nc1cc(F)c(F)c(F)c1 [Compound 32] | ≥ 1000 nM |
| C[C@H]1c2c(noc2-c2ccn(C)n2)CCN1C(=O)Nc1cc(F)c(F)c(F)c1 [Compound 34] | ≥ 1000 nM |
| CC1CCN(c2onc3c2CN(C(=O)Nc2cc(F)c(F)c(F)c2)[C@@H](C)C3)C1=O (stereo partly drawn) [Compound 56, (6S)-6-methyl-3-(3-methyl-2-oxopyrrolidin-1-yl)-N-(3,4,5-trifluorophenyl)-6,7-dihydroisoxazolo[4,3-c]pyridine-5(4H)-carboxamide] | < 100 nM |
| COC[C@@H]1CN(c2onc3c2CN(C(=O)Nc2cc(F)c(F)c(F)c2)[C@@H](C)C3)C(=O)O1 [Compound 61, (S)-3-((S)-5-(methoxymethyl)-2-oxooxazolidin-3-yl)-6-methyl-N-(3,4,5-trifluorophenyl)-6,7-dihydroisoxazolo[4,3-c]pyridine-5(4H)-carboxamide] | 100 to 1000 nM |
| C[C@H]1Cc2noc(-c3cnn(C)c3)c2CN1C(=O)Nc1cc(F)c(F)c(F)c1 [Compound 31] | 100 to 1000 nM |
| C[C@H]1Cc2noc(N3CCC(C)(C)C3=O)c2CN1C(=O)Nc1cc(F)c(F)c(F)c1 [Compound 57, (S)-3-(3,3-dimethyl-2-oxopyrrolidin-1-yl)-6-methyl-N-(3,4,5-trifluorophenyl)-6,7-dihydroisoxazolo[4,3-c]pyridine-5(4H)-carboxamide] | < 100 nM |
| O=C(Nc1cc(F)c(F)c(F)c1)N1CCc2noc(C3CCCCC3)c2C1 [Compound 2.1, 3-cyclohexyl-N-(3,4,5-trifluorophenyl)-6,7-dihydroisoxazolo[4,3-c]pyridine-5(4H)-carboxamide] | 100 to 1000 nM |
| C[C@H]1Cc2noc(N3CCC(CC(=O)O)C3=O)c2CN1C(=O)Nc1cc(F)c(F)c(F)c1 (stereo partly drawn) [Compound 63, 2-(1-((S)-6-methyl-5-((3,4,5-trifluorophenyl)carbamoyl)-4,5,6,7-tetrahydroisoxazolo[4,3-c]pyridin-3-yl)-2-oxopyrrolidin-3-yl)acetic acid] | ≥ 1000 nM |
| C[C@H]1Cc2noc(-c3cccc(Cl)c3)c2CN1C(=O)Nc1cc(F)c(F)c(F)c1 [Compound 22] | ≥ 1000 nM |
| Cc1ccc(-c2onc3c2CN(C(=O)Nc2cc(F)c(F)c(F)c2)[C@@H](C)C3)cc1 [Compound 11] | 100 to 1000 nM |
| Cc1nc(-c2onc3c2CN(C(=O)Nc2cc(F)c(F)c(F)c2)[C@@H](C)C3)co1 [Compound 35] | 100 to 1000 nM |
| Cc1nc(-c2onc3c2CN(C(=O)Nc2cc(F)c(F)c(F)c2)[C@@H](C)C3)no1 [Compound 41] | 100 to 1000 nM |
| C[C@H]1Cc2noc(N3CCCS3(=O)=O)c2CN1C(=O)Nc1cc(F)c(F)c(F)c1 [Compound 58, (S)-3-(1,1-dioxidoisothiazolidin-2-yl)-6-methyl-N-(3,4,5-trifluorophenyl)-6,7-dihydroisoxazolo[4,3-c]pyridine-5(4H)-carboxamide] | < 100 nM |
| C[C@H]1Cc2noc(-c3cccc(C#N)c3)c2CN1C(=O)Nc1cc(F)c(F)c(F)c1 [Compound 14] | 100 to 1000 nM |
| C[C@H]1Cc2noc(N3CCCC3=O)c2CN1C(=O)Nc1cc(F)c(F)c(F)c1 [Compound 8.1, (S)-6-methyl-3-(2-oxopyrrolidin-1-yl)-N-(3,4,5-trifluorophenyl)-6,7-dihydroisoxazolo[4,3-c]pyridine-5(4H)-carboxamide] | < 100 nM |
| C[C@H]1Cc2noc(-c3ccc(F)cc3F)c2CN1C(=O)Nc1cc(F)c(F)c(F)c1 [Compound 3.1-I, (S)-3-(2,4-difluorophenyl)-6-methyl-N-(3,4,5-trifluorophenyl)-6,7-dihydroisoxazolo[4,3-c]pyridine-5(4H)-carboxamide] | < 100 nM |
| Cc1ccccc1-c1onc2c1CN(C(=O)Nc1cc(F)c(F)c(F)c1)[C@@H](C)C2 [Compound 17] | 100 to 1000 nM |
| O=C(Nc1cc(F)c(F)c(F)c1)C1CCc2noc(-c3ccc(F)cc3F)c2C1 (stereo not drawn) [Compound 6.1, 3-(2,4-difluorophenyl)-N-(3,4,5-trifluorophenyl)-4,5,6,7-tetrahydrobenzo[c]isoxazole-5-carboxamide] | 100 to 1000 nM |
| COc1cccc(-c2onc3c2CN(C(=O)Nc2cc(F)c(F)c(F)c2)[C@@H](C)C3)c1 [Compound 20] | 100 to 1000 nM |
| O=C(Nc1cc(F)c(F)c(C(F)F)c1)N1CCc2noc(N3CCCOC3=O)c2C1 [Compound 45, N-(3-(difluoromethyl)-4,5-difluorophenyl)-3-(2-oxo-1,3-oxazinan-3-yl)-6,7-dihydroisoxazolo[4,3-c]pyridine-5(4H)-carboxamide] | < 100 nM |
